# Results from patent US20210346401A1, “REGULATOR OF TGR5 SIGNALING AS IMMUNOMODULATORY AGENT” (YICHANG HUMANWELL PHARMACEUTICAL CO., LTD, priority 2018, published 2021).
# What was measured:
# Raw264.7 cells [1] = experiment: Induction of type I IFNs and other antiviral genes by BAs (qPCR); assay type: cell-based; conditions: indicated concentrations of BAs
# Protocol: D. Induction of type I IFNs and other antiviral genes by BAs. Raw264.7 cells were treated by the indicated concentrations of the indicated BAs, followed by qPCR analysis of the expression of the indicated genes. L. Induction of type I IFNs and other antiviral genes by BAs. Raw264.7 cells were treated with LCA (200 μM) or CDCA (200 μM) for the indicated times, followed by qPCR analysis of the expression of the indicated genes.
# Raw264.7 cells [2] = experiment: Induction of phosphorylation of TBK1 and IRF3 by BAs (immunoblotting); assay type: cell-based; conditions: indicated concentrations of CDCA and LCA
# Protocol: (§1) E. Induction of phosphorylation of TBK1 and IRF3 by BAs. Raw264.7 cells were treated by the indicated concentrations of CDCA and LCA, followed by immunoblotting analysis with the indicated antibodies. Cells were lysed with RIPA buffer plus complete protease inhibitors and 20 mM NEM, and lysates were sonicated for 1 min. The lysates were centrifuged at 14000 rpm for 20 min at 4° C. The supernatants were incubated with respective antibodies at 4° C. overnight before protein G beads were added for 2 h. The beads were washed with cold PBS plus 0.5 M NaCl for three times followed by an additional wash with PBS. Proteins were separated by 8% SDS-PAGE, followed by immunoblot analysis with the indicated antibodies.
# VSV-GFP = assay type: cell-based
# monocytes = monocytes in vitro; cited from earlier work
# TGR5 = conditions: Tgr5+/+ macrophages (BMDMs); infected half an hour, then treatment for 6 hours
# THP1 cells = experiment: Effects of kinase inhibitors on virus-induced expression of BA metabolism genes and IFNB1 (qPCR); assay type: cell-based, human; conditions: inhibitor treatment, then HSV-1 or SeV for 4 hours
# SRC = experiment: Induction of pY416 of SRC by INT-777 and BA treatments (immunoblotting); assay type: cell-based; conditions: HEK293 cells, treatment for 1 hours
# Protocol: G. Induction of pY416 of SRC by INT-777 and BA treatments. HEK293 cells were treated with DMSO, INT-777 or the indicated BAs for 1 hours, followed by immunoblotting analysis with the indicated antibodies.
# as §1, with “Cells” for “E. Induction of phosphorylation of TBK1 and IRF3 by BAs. Raw264.7 cells were treated by the indicated concentrations of CDCA and LCA, followed by immunoblotting analysis with the indicated antibodies. Cells”
Compound,"transcription of downstream innate immunity genes including IFNB1, CXCL10 and ISG56 (Raw264.7 cells [1])",phosphorylation of TBK1 and IRF3 (Raw264.7 cells [2]),VSV-GFP replication (VSV-GFP),"production of interleukin-1, interleukin-6 and tumor necrosis factor-α (monocytes)",HSV-1- and SeV-induced transcription of Ifnb1 (TGR5),"HSV-1- and SeV-induced transcription of CYP7A1, CYP7B1, CYP27A1 and OATP genes (THP1 cells)",phosphorylation of SRC at Y416 (SRC)
"C[C@H](CCC(=O)O)[C@H]1CC[C@H]2[C@@H]3[C@H](O)C[C@@H]4C[C@H](O)CC[C@]4(C)[C@H]3CC[C@]12C [CDCA, chenodeoxycholic acid]",potently induced,induced phosphorylation,dramatically inhibited,inhibits,potentiated,–,–
Cc1ccc2nc(NCCN)c3ncc(C)n3c2c1 [BMS-345541],–,–,–,–,–,abolished,–
CC[C@H]1[C@@H](O)[C@@H]2[C@H](C[C@H](O)[C@]3(C)[C@@H]([C@H](C)C[C@H](C)C(=O)O)CC[C@@H]23)[C@@]2(C)CC[C@@H](O)C[C@@H]12 [INT-777],–,–,–,–,potentiated,–,induced phosphorylation
